From US20130137716A1, “PARENTERAL DEXTROSE FORMULATION OF CLOPIDOGREL” (ACADEMIC PHARMACEUTICALS INCORPORATED, priority 2011, published 2013)

Assay: Storage stability of clopidogrel solution at room temperature and at 40°
Type: physicochemical

Question: Which “ability of solvent to form a stable solution of clopidogrel” value (D5W (5% dextrose in water)) does the source give for `COC(=O)[C@H](c1ccccc1Cl)N1CCc2sccc2C1` [clopidogrel] here?
Answer: not capable of forming a stable solution

Question: What about the “ability of solvent to form a stable solution of clopidogrel” value (D50W (50% dextrose in water), room temperature and 40°) of the same compound?
Answer: capable of forming a stable solution
